2 compounds from patent publication US9688624B2, “DP2 antagonist and uses thereof” (Brickell Biotech, Inc., priority 2010, dated 2017) can be followed below.

Counter-ions that a name gives are not always drawn. Like-named read-outs stand apart in the source and are kept apart here.

A short description of series [1]: Regional dosing study in rat (pharmacokinetics). In kind it is in vivo. The settings on record: for Tmax / AUC / Cmax / bioavailability / half-life: Sprague-Dawley, in vivo. From the text: Example 11: Regional Dosing Study
Male Sprague-Dawley rats (weighing from about 200 to about 300 grams) in the fasted state received a single injection of a solution of Compound 2 (5% methocel) in the duodenum, jejunum or ileum. This was compared with PO administration of the same formulation of Compound 2. […]

Series [2] deals with ovalbumin (OVA)-induced allergic rhinitis. The series can be described thus: Mouse allergic rhinitis model. In kind it is in vivo. Conditions: 10 mg/kg PO daily. On the procedure:
Example 18: Mouse Allergic Rhinitis Model
Compound 2 was evaluated in a mouse model of ovalbumin (OVA)-induced allergic rhinitis in which nasal ovalbumin challenges to OVA-primed mice elicits an increase in sneezing and nasal rubs (Methods were adapted from those detailed in Nakaya, M., et al. 2006, Laboratory Investigation, 86:917-926). OVA-primed mice received an intranasal challenge of OVA daily for 5 consecutive days. The number of sneezes and nasal rubs were counted over an 8 minute recording session on days 1, 3 and 5 immediately following OVA challenge. OVA caused a significant increase in both sneezing behavior and nasal rubs when compared to intranasal phosphate buffered saline (PBS) challenge. […] The plasma exposure for Compound 1 measured in a satellite group was 1360 nM, 460 nM, 210 nM and 90 nM for time points 1, 2, 4, and 6 hr post-dose, respectively.

For series [3], the system named is allergen-induced asthma (OVA challenge). The series can be described thus: Guinea pig allergic asthma (OVA) model. In kind it is in vivo. On the procedure: Example 20: Guinea Pig Allergic Asthma Model
Compound 2 was evaluated in a guinea pig OVA model in order to determine efficacy in a setting of allergen-induced asthma. As an early indication of a pharmacodynamic response animals were challenged with DK-PGD2 2 hours post OVA challenge (2.5 hours post Compound 2 administration) and blood was collected 30 minutes later to assess leukocytes counts. […] OVA challenge caused a significant influx of cells in bronchoalveolar lavage fluid at 23.5 hr post-dose; there was no difference between animals that received OVA only versus those that received OVA plus DK-PGD2. The majority of cells were eosinophils and macrophages with a small, but significant proportion of neutrophils.

In another series the target is mouse DP2 (Mus musculus (Mouse), UniProt Q9Z2J6). The series can be described thus: In vitro DP2/CRTH2 radioligand ([3H]PGD2) membrane binding assay. Conditions: average. As for the experimental part:
(§1) Example 15: In Vitro DP2/CRTH2 Binding Assay
(§2) The ability of Compound 1 to bind to the human DP2 receptor was assessed via a radioligand binding assay using [^3H]PGD2. HEK293 cells stably expressing recombinant human DP2 are resuspended in 10 mM Hepes, 7.4 containing 1 mM DTT, lysed and centrifuged at 75,000×g to pellet the membranes. The membranes are resuspended in 10 mM Hepes, 7.4 containing 1 mM DTT and 10% glycerol to approximately 5 mg protein/ml. Membranes (2-10 μg protein/well) are incubated in 96-well plates with 1 nM [^3H]PGD2 and Compound 1 in Assay Buffer (50 mM Hepes, 10 mM MnCl2, 1 mM EDTA, plus or minus 0.2% human serum albumin, pH 7.4) for 60 minutes at room temperature. The reactions are terminated by rapid filtration through Whatman GF/C glass fibre filter plates. The filter plates were pre-soaked in 0.33% polythylenimine for 30 minutes at room temperature then washed in Wash Buffer (50 mM Hepes, 0.5 M NaCl pH 7.4) prior to harvesting. After harvesting, the filter plates are washed 3 times with 1 ml cold Wash Buffer then dried. Scintillant is then added to the plates and the radioactivity retained on the filters is determined on a Packard TopCount (Perkin Elmer). Specific binding is determined as total radioactive binding minus non-specific binding in the presence of 10 μM PGD2. IC50s were determined using GraphPad prism analysis of drug titration curves. Mouse, rat and guinea pig DP2 receptors were also investigated.
(§3) The binding potency of Compound 1 is only slightly shifted in the presence of species-specific serum albumin.

For another series, the target named is rat DP2 (Rattus norvegicus (Rat), UniProt Q6XKD3). Described as above. Conditions: average. On the procedure: as §1, §2, §3
Chain of rat DP2 (Q6XKD3 whole entry): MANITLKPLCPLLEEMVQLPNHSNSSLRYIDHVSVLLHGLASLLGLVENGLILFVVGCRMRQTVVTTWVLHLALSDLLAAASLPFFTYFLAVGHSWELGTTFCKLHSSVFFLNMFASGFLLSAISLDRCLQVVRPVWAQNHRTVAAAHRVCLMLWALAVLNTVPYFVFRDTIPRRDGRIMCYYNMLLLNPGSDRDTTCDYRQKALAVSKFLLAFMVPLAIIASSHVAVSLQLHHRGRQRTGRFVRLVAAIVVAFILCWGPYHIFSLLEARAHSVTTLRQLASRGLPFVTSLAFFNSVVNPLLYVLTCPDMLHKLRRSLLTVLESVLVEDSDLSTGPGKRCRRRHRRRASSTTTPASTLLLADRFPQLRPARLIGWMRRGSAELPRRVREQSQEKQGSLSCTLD
The target in series [4] is recombinant human CRTH2 receptor (Homo sapiens (Human), UniProt Q9Y5Y4). The series can be described thus: In vitro membrane GTPγS binding assay. In kind it is biochemical. Conditions: average; 80 nM PGD2, 0.2% human serum albumin. On the procedure: Example 16: In Vitro GTPγS Binding Assay
Chain of recombinant human CRTH2 receptor (Q9Y5Y4 whole entry): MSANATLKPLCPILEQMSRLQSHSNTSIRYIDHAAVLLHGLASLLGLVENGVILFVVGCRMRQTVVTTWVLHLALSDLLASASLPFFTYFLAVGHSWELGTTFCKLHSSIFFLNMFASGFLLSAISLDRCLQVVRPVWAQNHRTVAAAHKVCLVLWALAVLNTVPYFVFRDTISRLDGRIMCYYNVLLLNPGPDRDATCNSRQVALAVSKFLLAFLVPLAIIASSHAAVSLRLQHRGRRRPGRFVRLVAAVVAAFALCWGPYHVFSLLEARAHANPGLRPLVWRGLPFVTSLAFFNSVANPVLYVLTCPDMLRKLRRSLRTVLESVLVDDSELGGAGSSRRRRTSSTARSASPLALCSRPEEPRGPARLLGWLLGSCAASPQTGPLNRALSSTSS
The ability of Compound 1 to inhibit binding of GTP to DP2 is assessed via a membrane GTPγS assay. CHO cells stably expressing the recombinant human CRTH2 receptor are resuspended in 10 mM Hepes, 7.4 containing 1 mM DTT, lysed and centrifuged at 75,000×g to pellet the membranes. The membranes are resuspended in 10 mM Hepes, 7.4 containing 1 mM DTT and 10% glycerol. Membranes (˜12.5 μg per well) are incubated in 96-well plates with 0.05 nM [^35S]-GTPγS, 80 nM PGD2, 5 μM GDP, and Compound 1 in Assay Buffer (50 mM Hepes, pH 7.4, 100 mM NaCl, 5 mM MgCl2 and 0.2% human serum albumin) for 60 minutes at 30° C. The reactions are terminated by rapid filtration through Whatman GF/B glass fibre filter plates. The filter plates are washed 3 times with 1 ml cold Assay Buffer and dried. Scintillant is then added to the plates and the radioactivity retained on the filters is determined on a Packard TopCount (Perkin Elmer). Specific binding is determined as total radioactive binding minus non-specific binding in the […] of the ligand (80 nM PGD2). IC50s were determined using Graphpad prism analysis of drug titration curves.
On the technique in general: GTPγS resists hydrolysis and so accumulates on activated G proteins.

In the next series the target is CYP2C9 (Homo sapiens (Human), UniProt P11712). In kind it is in vitro ADME. The settings on record: human hepatocytes, 10 μM.

Chain of mouse DP2 (Q9Z2J6 whole entry): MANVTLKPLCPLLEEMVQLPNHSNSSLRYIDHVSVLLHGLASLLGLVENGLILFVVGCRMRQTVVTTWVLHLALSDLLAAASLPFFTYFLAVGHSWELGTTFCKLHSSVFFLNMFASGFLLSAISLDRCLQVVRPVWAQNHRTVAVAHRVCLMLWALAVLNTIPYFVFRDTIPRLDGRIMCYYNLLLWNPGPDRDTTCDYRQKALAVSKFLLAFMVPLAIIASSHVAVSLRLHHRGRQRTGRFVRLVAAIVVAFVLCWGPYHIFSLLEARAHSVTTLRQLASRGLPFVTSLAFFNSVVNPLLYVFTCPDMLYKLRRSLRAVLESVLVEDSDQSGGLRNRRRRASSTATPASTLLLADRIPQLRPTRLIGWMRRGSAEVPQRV

In the case of `COc1ccc(CC(=O)O)cc1Oc1ccc(NC(=O)C(C)(C)C)cc1CSC(C)(C)C` [Compound 2, 2-(3-(2-((tert-butylthio)methyl)-4-(2,2-dimethyl-propionylamino)phenoxy)-4-methoxyphenyl)acetic acid, sodium salt], the Tmax (in general, the time from dosing to the highest level) in series [1] (iv, 2 mg/kg) is 0.08 h; in series [1] (male, 10 mg/kg, duodenum), 0.25 h; in series [1] (male, 10 mg/kg, ileum), 0.63 h; in series [1] (male, 10 mg/kg, jejunum) it was 0.25 h; in series [1] (male, po, 10 mg/kg) it was 0.75 h. Further, the exposure (AUC) – broadly, concentration integrated over time – was 5010 ng·h/mL in series [1] (male, 10 mg/kg, duodenum); 1980 ng·h/mL in series [1] (male, 10 mg/kg, ileum); 8110 ng·h/mL in series [1] (male, 10 mg/kg, jejunum); 3670 ng·h/mL in series [1] (male, iv, 2 mg/kg); 4370 ng·h/mL in series [1] (male, po, 10 mg/kg). Besides, the Cmax – broadly, the maximum level reached in the sampled fluid or tissue – in series [1] (male, 10 mg/kg, duodenum) came out at 4310 ng/mL; in series [1] (male, 10 mg/kg, ileum) it was 610 ng/mL; in series [1] (male, 10 mg/kg, jejunum) it was 12700 ng/mL; in series [1] (male, po, 10 mg/kg), 3060 ng/mL. Besides, the bioavailability (usually the share of a dose that reaches the circulation, judged against a reference dose that is usually intravenous) in series [1] (male, 10 mg/kg, duodenum) came out at 27.3%; in series [1] (male, 10 mg/kg, ileum), 10.8%; in series [1] (male, 10 mg/kg, jejunum), 44.2%; in series [1] (male, po, 10 mg/kg), 23.8%. The half-life (commonly how long it takes for the measured level to halve) in series [1] (male, 10 mg/kg, duodenum) is 4.12 h; in series [1] (male, 10 mg/kg, ileum), 5.06 h; in series [1] (male, 10 mg/kg, jejunum), 5.29 h; in series [1] (male, iv, 2 mg/kg) it was 2 h; in series [1] (male, po, 10 mg/kg) it was 1.5 h. For the same compound, the site of absorption result in series [1] (regional dosing) is “preferentially absorbed in the jejunum”. For the same compound, in series [2], the “nasal responses (sneezes and nasal rubs) after OVA challenge” value was “significantly reduced”. Moreover, the “eosinophils and neutrophils in bronchoalveolar lavage fluid” value in series [3] (100 mg/kg PO) is reported as “significantly reduced”. In addition, in series [3] (30, 60, and 100 mg/kg PO, significant at 60 and 100 mg/kg, 23.5 hr post-dose), the “total cellular influx in bronchoalveolar lavage fluid” value is “dose dependently inhibited”. Moreover, the “DK-PGD2-induced increase in blood leukocytes” value in series [3] (30, 60, and 100 mg/kg, 2.5 hours post administration) is “blocked”.

For the compound `COc1ccc(CC(=O)O)cc1Oc1ccc(NC(=O)C(C)(C)C)cc1CSC(C)(C)C` [Compound 1, 2-(3-(2-((tert-butylthio)methyl)-4-(2,2-dimethyl-propionylamino)phenoxy)-4-methoxyphenyl)acetic acid], the IC50 – broadly, the concentration at which inhibition is half-maximal – at mouse DP2 (0.2% species-specific albumin, read-out: IC50, radioligand membrane binding on mouse DP2) came out at 11.4 nM; at mouse DP2 (without serum albumin, read-out: IC50, inhibition of radiolabeled PGD2 binding to mouse DP2), 9.7 nM; at rat DP2 (0.2% species-specific albumin, read-out: IC50, radioligand membrane binding on rat DP2) it was 10.4 nM; at rat DP2 (without serum albumin, read-out: IC50, inhibition of radiolabeled PGD2 binding to rat DP2) it was 7 nM; in series [4], 2.8 nM. The “induction of CYP2C9” value on CYP2C9 is recorded as “not a strong inducer”.
